According to the NIST ThermoML archive (doi:10.1016/j.jct.2005.05.004):

Columns and labels:
[1] = 298.15 K; 101.33 kPa; Liquid; Vibrating tube method
[2] = refractive index (Na D-line) (dimensionless); conditions: 298.15 K; 101.33 kPa; Liquid
[3] = refractive index (Na D-line) (dimensionless); xn = mol fraction of the nth substance listed; conditions: 298.15 K, 101.32 kPa, Liquid
[4] = xn = mol fraction of the nth substance listed; conditions: 298.15 K, 101.32 kPa, Liquid, Vibrating tube method

CCO [ethanol]
Conditions | mass density [kg/m3] | refractive index
[1] | 785.32 | –
[2] | – | 1.3592

CCI [iodoethane]
Conditions | mass density [kg/m3] | refractive index
[1] | 1923.75 | –
[2] | – | 1.5095

CCI [iodoethane] + CCCO
Conditions | mass density, [4] [kg/m3] | refractive index, [3]
x2 = 0.0332 | 1887.25 | 1.505
x2 = 0.0469 | 1872.23 | 1.503
x2 = 0.0528 | 1865.57 | 1.502
x2 = 0.2862 | 1611.62 | 1.4688
x2 = 0.3861 | 1501.9 | 1.4567
x2 = 0.4714 | 1407.06 | 1.447
x2 = 0.5981 | 1264.7 | 1.4299
x2 = 0.6984 | 1150.74 | 1.418
x2 = 0.7894 | 1046.25 | 1.4077
x2 = 0.8728 | 949.54 | 1.397
x2 = 0.9101 | 905.96 | 1.393

CCI [iodoethane] + CCO
Conditions | mass density, [4] [kg/m3] | refractive index, [3]
x2 = 0.0481 | 1880.86 | 1.503
x2 = 0.0942 | 1839.5 | 1.4971
x2 = 0.2302 | 1712.7 | 1.479
x2 = 0.29 | 1654.4 | 1.4701
x2 = 0.3989 | 1543.6 | 1.4535
x2 = 0.4889 | 1447.12 | 1.442
x2 = 0.6035 | 1316.7 | 1.4241
x2 = 0.687 | 1215.7 | 1.4093
x2 = 0.7935 | 1078.8 | 1.3929
x2 = 0.8994 | 933.27 | 1.3761
x2 = 0.9522 | 856.7 | 1.3675

CCI [iodoethane] + CO
Conditions | mass density, [4] [kg/m3] | refractive index, [3]
x2 = 0.1198 | 1843.6 | 1.4964
x2 = 0.1399 | 1829.8 | 1.4938
x2 = 0.2068 | 1783 | 1.4869
x2 = 0.26 | 1743.6 | 1.4787
x2 = 0.4066 | 1622.2 | 1.4578
x2 = 0.4234 | 1606.9 | 1.4553
x2 = 0.4808 | 1552.1 | 1.4451
x2 = 0.4954 | 1537.5 | 1.4436
x2 = 0.5699 | 1458.5 | 1.4302
x2 = 0.6771 | 1329.5 | 1.4084
x2 = 0.7989 | 1156.8 | 1.3821
x2 = 0.9094 | 969.6 | 1.3534

CCI [iodoethane] + Cc1ccccc1
Conditions | mass density, [4] [kg/m3] | refractive index, [3]
x2 = 0.1279 | 1749.5 | 1.5056
x2 = 0.2014 | 1655.8 | 1.5038
x2 = 0.3085 | 1526.9 | 1.5012
x2 = 0.3955 | 1428.3 | 1.5002
x2 = 0.4476 | 1371.7 | 1.499
x2 = 0.4678 | 1350.2 | 1.4992
x2 = 0.4961 | 1320.5 | 1.4983
x2 = 0.5735 | 1241.7 | 1.4974
x2 = 0.6009 | 1214.7 | 1.4968
x2 = 0.6974 | 1122.5 | 1.4959
x2 = 0.7276 | 1094.6 | 1.4957
x2 = 0.7984 | 1031 | 1.4948
x2 = 0.8866 | 954.9 | 1.4943
x2 = 0.9322 | 916.9 | 1.494

CO [methanol]
Conditions | mass density [kg/m3] | refractive index
[1] | 787.98 | –
[2] | – | 1.3262

CCCO [propan-1-ol]
Conditions | mass density [kg/m3] | refractive index
[1] | 799.69 | –
[2] | – | 1.3829

Cc1ccccc1 [toluene]
Conditions | mass density [kg/m3] | refractive index
[1] | 862.28 | –
[2] | – | 1.4938

Cc1ccccc1 [toluene] + CCCO
Conditions | mass density, [4] [kg/m3] | refractive index, [3]
x1 = 0.0609 | 805.41 | 1.3918
x1 = 0.0969 | 808.53 | 1.397
x1 = 0.1939 | 816.4 | 1.4108
x1 = 0.3036 | 824.3 | 1.4249
x1 = 0.3965 | 830.4 | 1.4349
x1 = 0.4988 | 836.58 | 1.4469
x1 = 0.5524 | 839.64 | 1.4509
x1 = 0.5932 | 841.82 | 1.4533
x1 = 0.692 | 847.02 | 1.466
x1 = 0.77 | 851.01 | 1.473
x1 = 0.9274 | 858.78 | 1.4873
x1 = 0.9343 | 859.08 | 1.488

Cc1ccccc1 [toluene] + CCO
Conditions | mass density, [4] [kg/m3] | refractive index, [3]
x1 = 0.0476 | 792.25 | 1.3699
x1 = 0.1205 | 801.71 | 1.385
x1 = 0.1948 | 810 | 1.3993
x1 = 0.2994 | 820.14 | 1.4163
x1 = 0.3992 | 828.34 | 1.4311
x1 = 0.4884 | 834.71 | 1.443
x1 = 0.5577 | 839.3 | 1.4518
x1 = 0.5994 | 841.81 | 1.4565
x1 = 0.7159 | 848.36 | 1.4682
x1 = 0.7646 | 850.92 | 1.4732
x1 = 0.8915 | 857.06 | 1.485
x1 = 0.8917 | 857.09 | 1.485

Cc1ccccc1 [toluene] + CO
Conditions | mass density, [4] [kg/m3] | refractive index, [3]
x1 = 0.0491 | 797.2 | 1.3464
x1 = 0.1058 | 806.2 | 1.366
x1 = 0.199 | 818.1 | 1.3921
x1 = 0.3361 | 831.1 | 1.4215
x1 = 0.4097 | 836.6 | 1.4337
x1 = 0.4501 | 839.2 | 1.4402
x1 = 0.5024 | 842.4 | 1.4478
x1 = 0.5393 | 844.4 | 1.4527
x1 = 0.5818 | 846.6 | 1.4579
x1 = 0.6961 | 851.7 | 1.47
x1 = 0.7764 | 854.8 | 1.4778
x1 = 0.8695 | 858 | 1.485
x1 = 0.9416 | 860.2 | 1.4904
